# Reference: PMC8344022, “Small-molecule inhibitor of AF9/ENL-DOT1L/AF4/AFF4 interactions suppresses malignant gene expression and tumor growth” (Theranostics, 2021)
# Like-named read-outs stand apart in the source and are kept apart here.
# What was measured:
# [1] = test system: cancer cells; assay: Antiproliferation assays, cancer cell panel; format: cell-based
# Method: The differential antiproliferation activities of compound 1 is consistent with its ability to suppress DOT1L/H3K79 methylation and SEC regulated gene expression, which are critical to MLL-r leukemia and Myc-driven blood cancer, but largely dispensable to other solid tumor cells.
# Antiproliferation assay. Proliferation inhibition assays for suspension blood cancer cells were performed using an XTT assay kit (Roche). Proliferation inhibition assays for solid tumor cell lines MCF-7, MDA-MB-231, Panc1, Panc28 were performed using an MTT assay (Sigma). The antiproliferation EC50 values were determined using Prism 5 and the reported results were the mean values of at least three independent experiments. The incubation time for compound 1 was 7 days and that for EPZ4777 was 14 days.
# [2] = molecular target: T1, AF9 AHD bound to DOT1L-coated beads (Homo sapiens, UniProt P42568); assay: Western blot based pull-down assay; format: binding; details: increasing concentrations
# T1 construct: cDNA for human AF9 AHD domain (475-568) and ENL AHD domain (489-559) was synthesized; made in house; host or cells: E. coli BL21(DE3)
# Method: A non-optical pull-down assay was used to further validate compound 1. DOT1L-coated beads were incubated with AF9 AHD in the presence of increasing concentrations of 1.
# Western blot based pull-down assay. Biotinylated DOT1L peptide (0.25 mg/mL) was incubated with streptavidin agarose beads in PBS containing 0.1% Triton X-100 (400 µL) for 3h to yield, after washing, DOT1L-coated beads. MBP-AF9 AHD (0.2 µM, 40 µL) was pre-incubated with a compound for 30 min before adding to the beads. After 6 hours incubation at 4 °C, the beads were collected, thoroughly washed, and subjected to SDS-PAGE and analyzed by Western blot using an MBP Mouse mAb (#2396, Cell signaling).
# [3] = molecular target: T2, AF9-DOT1L interaction (Homo sapiens, UniProt P42568); assay: Alpha assay, AF9 AHD-DOT1L peptide interaction; format: binding; details: read-out: IC50, inhibition of AF9-DOT1L interaction
# T2 construct: cDNA for human AF9 AHD domain (475-568) and ENL AHD domain (489-559) was synthesized; made in house; host or cells: E. coli BL21(DE3)
# T2 sequence (P42568 475-568): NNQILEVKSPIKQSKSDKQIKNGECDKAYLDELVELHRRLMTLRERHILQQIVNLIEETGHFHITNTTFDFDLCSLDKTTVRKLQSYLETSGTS
# Source text: We developed an Alpha (amplified luminescent proximity homogeneous assay) assay to determine the binding and inhibition of the PPI between maltose-binding protein (MBP)-tagged AF9 AHD and a biotin-labeled DOT1L peptide, using AlphaLisa streptavidin donor beads and anti-MBP acceptor beads. Laser excitation to the donor beads generates singlet oxygen radicals, which can travel for <200 nm in solution and cannot reach the free acceptor beads. The PPI brings the DOT1L coated donor beads and AHD coated acceptor beads together, allowing the radicals to activate the acceptor beads and produce luminescence. […] We also developed a fluorescence polarization (FP) assay. A fluorescein-labeled DOT1L peptide has a higher freedom in solution with a lower polarization value.
# Alpha assays. Alpha assays were developed using Perkin-Elmer AlphaLisa anti-MBP kit, which contains streptavidin donor beads and anti-MBP acceptor beads. The assay was performed using a MBP-protein (5 nM), a biotinylated peptide (40 nM), and increasing concentrations of a compound in 25 µL buffer (PBS with 0.5 % BSA, pH 7.5) in 384-well plates according to the manufacturer's protocol and measured with a Tecan SPARK microplate reader. Data were imported into Prism (version 5.0), and IC50 values from 3 independent experiments with standard deviation were obtained by using a standard dose-response curve fitting.
compound,measurement,setting,value
CC(C)(C)c1ccc(-n2cc(C(=O)NC3CCNCC3)nc2-c2ccccc2)cc1 [Compound 1],EC50,"[1]; 168 h, MLL-r leukemia (MV4;11, Molm-13, THP-1) and Myc-driven blood cancer cells, 7 days, read-out: EC50 against proliferation (range)",3 to 11 µM
same,Antiproliferative activity against solid tumor cells,"[1]; MCF-7, MDA-MB-231 and two pancreatic cancer cells",reduced activity
same,EC50,"[1]; MLL-r leukemia cells Molm-13, MV4;11 and THP-1, read-out: EC50s against proliferation (range)",4.7 to 11 µM
same,EC50,"[1]; Myc-driven blood cancer cells HL60, Kasumi-1, Jurkat, RPMI8226, U266, read-out: EC50s against proliferation (range)",3.3 to 9.7 µM
same,Beads-bound AF9 AHD in pull-down (Western blot),[2],reduced beads-bound AF9 AHD with a similar IC50
same,IC50,[3],3.5 µM
